Reference: ChEMBL document CHEMBL1201862, “PubChem BioAssay data set” (2004)
Activity calls are given as the source filed them.

How the values were obtained:
[1] = molecular target: T1, Fatty acid synthase (Homo sapiens, UniProt P49327); test: FAS thioesterase domain inhibitors, dose response, biochemical, kinetic fluorescence intensity (AID 624326); format: functional;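 further: rate of fluorescence rise from hydrolysis of a fluorogenic O-methyl fluorescein ester substrate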
[2] = molecular target: T1, Fatty acid synthase; test: FAS thioesterase domain inhibitors, dose response, biochemical, endpoint fluorescence intensity, uHTS hits (AID 624327); format: functional;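 further: fluorescence from hydrolysis of an O-methyl fluorescein acyl ester substrate by the enzyme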
[3] = molecular target: T2, Replicative DNA helicase DnaB (Mycobacterium tuberculosis, UniProt P9WMR3); test: DnaB intein splicing inhibitors, dose response, biochemical, cell-free fluorescence (AID 449749); format: functional
T2 sequence (P9WMR3 whole entry): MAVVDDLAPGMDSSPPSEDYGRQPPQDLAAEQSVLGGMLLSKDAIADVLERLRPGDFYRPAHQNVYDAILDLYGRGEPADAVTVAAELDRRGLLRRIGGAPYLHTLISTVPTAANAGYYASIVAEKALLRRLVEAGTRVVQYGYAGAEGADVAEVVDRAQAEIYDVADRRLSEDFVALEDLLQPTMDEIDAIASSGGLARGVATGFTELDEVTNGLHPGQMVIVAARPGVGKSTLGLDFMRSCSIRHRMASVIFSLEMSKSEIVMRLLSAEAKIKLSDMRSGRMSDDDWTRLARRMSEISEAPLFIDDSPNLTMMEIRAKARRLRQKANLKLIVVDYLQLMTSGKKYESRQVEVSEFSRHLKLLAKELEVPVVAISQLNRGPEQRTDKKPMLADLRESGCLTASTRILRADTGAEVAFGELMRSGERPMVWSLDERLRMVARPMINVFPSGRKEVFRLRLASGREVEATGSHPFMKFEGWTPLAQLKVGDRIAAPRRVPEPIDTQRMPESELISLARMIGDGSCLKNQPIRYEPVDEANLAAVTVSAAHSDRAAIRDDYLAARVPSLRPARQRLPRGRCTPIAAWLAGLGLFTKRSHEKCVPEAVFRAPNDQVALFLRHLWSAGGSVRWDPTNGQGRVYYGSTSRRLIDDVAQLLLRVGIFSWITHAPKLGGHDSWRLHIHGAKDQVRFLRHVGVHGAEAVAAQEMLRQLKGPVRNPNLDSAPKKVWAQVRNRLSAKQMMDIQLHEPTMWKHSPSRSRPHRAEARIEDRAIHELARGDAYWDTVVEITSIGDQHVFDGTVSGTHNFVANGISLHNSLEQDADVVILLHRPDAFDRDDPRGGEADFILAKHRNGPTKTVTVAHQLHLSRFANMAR

[4] = molecular target: T3, Protein RecA (Mycobacterium tuberculosis, UniProt P9WHJ3); test: Fluorescence Cell-Free Homogeneous Dose Retest to Identify Inhibitors of RecA-Intein Splicing Activity. [Related pubchem assays (depositor defined):AID2097, AID2223, AID489010, AID492950]; format: functional
T3 sequence (P9WHJ3 whole entry): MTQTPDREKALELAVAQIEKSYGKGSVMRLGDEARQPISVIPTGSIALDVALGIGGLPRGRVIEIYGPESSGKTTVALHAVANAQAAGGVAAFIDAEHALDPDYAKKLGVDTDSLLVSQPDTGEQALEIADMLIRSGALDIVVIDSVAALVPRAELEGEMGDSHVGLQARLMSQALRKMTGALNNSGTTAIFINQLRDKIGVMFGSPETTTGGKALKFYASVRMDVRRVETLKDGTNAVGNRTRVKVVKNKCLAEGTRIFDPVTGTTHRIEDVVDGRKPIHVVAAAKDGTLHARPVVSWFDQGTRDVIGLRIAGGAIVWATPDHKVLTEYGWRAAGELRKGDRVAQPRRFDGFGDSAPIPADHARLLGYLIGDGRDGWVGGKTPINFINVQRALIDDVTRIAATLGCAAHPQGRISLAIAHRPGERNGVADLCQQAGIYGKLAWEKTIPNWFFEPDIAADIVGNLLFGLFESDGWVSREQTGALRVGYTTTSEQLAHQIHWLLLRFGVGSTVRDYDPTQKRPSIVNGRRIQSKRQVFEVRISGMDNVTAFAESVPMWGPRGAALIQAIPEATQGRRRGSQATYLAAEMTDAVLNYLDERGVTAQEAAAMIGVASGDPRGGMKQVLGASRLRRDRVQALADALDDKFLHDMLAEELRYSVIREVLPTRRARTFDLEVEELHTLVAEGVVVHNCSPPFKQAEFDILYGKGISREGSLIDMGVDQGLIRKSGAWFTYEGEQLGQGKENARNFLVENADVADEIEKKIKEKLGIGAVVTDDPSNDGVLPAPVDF

[5] = Luminescence Cell-Based Dose Retest to Confirm Inhibitors of Cancer Stem Cells. [Related pubchem assays (depositor defined):AID2717, AID2721]; format: functional; settings: Homo sapiens
[6] = molecular target: T4, Polyadenylate-binding protein 1 (Homo sapiens, UniProt P11940); test: PABP1 MLLE–PAM2 interaction inhibitors, dose response, miRNA deadenylation inhibitor project, biochemical, fluorescence polarization, Cy5-PAM2 peptide, secondary (AID 602260); format: functional; settings: read-out: IC50_Mean
[7] = molecular target: T4, Polyadenylate-binding protein 1; test: PABP1 MLLE–PAM2 binding inhibitor potency, dose response, biochemical, fluorescence polarization, FITC-PAM2 peptide (AID 602259); format: functional; settings: read-out: IC50_Mean
[8] = NIH-3T3 fibroblast cytotoxicity, dose response, cytotoxicity control, cell-based, fluorescence, Alamar Blue, secondary assay (AID 2327); format: functional;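 further: NIH-3T3 mouse fibroblasts cultured with fluconazole at 8 µg/mL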
[9] = C. albicans growth with fluconazole, confirmation, fluorescence, retest (AID 2467); format: functional, cell-based
[10] = molecular target: Genome polyprotein (dengue virus type 2, UniProt P29990); test: Dengue-2 NS5 methyltransferase inhibitors, primary screen, biochemical, confirmation dose response (AID 588689); format: functional
[11] = molecular target: FAD-linked sulfhydryl oxidase ALR (Homo sapiens, UniProt P55789); test: inhibitors of human ALR sulfhydryl oxidase, dose response, biochemical, H2O2 detection, luminescence, cherry-pick (AID 493248)
[12] = inhibitors of intracellular T. cruzi replication, confirmation, NIH3T3 host cells, beta-gal luminescence (AID 2044); format: functional, cell-based;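 further: intracellular parasites grown in NIH/3T3 mouse fibroblasts as host cells; luminescent beta-galactosidase reporter signal from transgenic T. cruzi replicating inside host cells; inhibitors lower the luminescence signal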
[13] = HEp-2 cell cytotoxicity, dose response, cytotoxicity control for RSV inhibitor project, HTS (AID 2410); format: functional; settings: human respiratory syncytial virus
[14] = cytotoxicity toward NIH3T3 fibroblasts, dose response, counter-screen, cell-based, ATP luminescence, mouse fibroblasts (AID 2010); format: functional;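 further: cells exposed to compound for about 90 hours before reading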
[15] = cells; format: functional, cell-based
[16] = system: INS1; test: beta cell apoptosis inhibitors, cytokine rescue, dose response, luminescence, retest (AID 449756); format: functional, cell-based; settings: Rattus norvegicus;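 further: cell death triggered by IL-1 beta plus TNF-alpha plus IFN-gamma mixture; protective hits raise ATP signal compared with cytokine alone wells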
[17] = cells; format: functional, cell-based; remark: listed apart in the source
[18] = molecular target: T5, Cytochrome P450 1A2 (Homo sapiens, UniProt P05177);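 further: PubChem cytochrome P450 panel assay, CYP1A2 panel member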
T5 sequence (P05177 whole entry): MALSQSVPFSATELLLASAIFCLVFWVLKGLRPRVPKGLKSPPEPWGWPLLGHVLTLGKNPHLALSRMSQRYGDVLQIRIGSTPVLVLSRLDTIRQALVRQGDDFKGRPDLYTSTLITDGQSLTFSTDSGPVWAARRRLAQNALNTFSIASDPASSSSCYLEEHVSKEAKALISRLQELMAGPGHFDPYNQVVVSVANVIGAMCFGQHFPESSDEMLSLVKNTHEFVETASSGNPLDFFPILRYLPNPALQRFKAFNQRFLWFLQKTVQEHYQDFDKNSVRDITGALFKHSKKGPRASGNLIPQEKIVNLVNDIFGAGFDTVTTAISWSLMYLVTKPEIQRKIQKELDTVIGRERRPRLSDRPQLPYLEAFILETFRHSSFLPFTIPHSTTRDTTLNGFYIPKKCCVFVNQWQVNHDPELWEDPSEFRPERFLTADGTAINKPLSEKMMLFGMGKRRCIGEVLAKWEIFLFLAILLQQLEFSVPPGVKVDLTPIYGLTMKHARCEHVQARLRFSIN

T4 sequence (P11940 whole entry): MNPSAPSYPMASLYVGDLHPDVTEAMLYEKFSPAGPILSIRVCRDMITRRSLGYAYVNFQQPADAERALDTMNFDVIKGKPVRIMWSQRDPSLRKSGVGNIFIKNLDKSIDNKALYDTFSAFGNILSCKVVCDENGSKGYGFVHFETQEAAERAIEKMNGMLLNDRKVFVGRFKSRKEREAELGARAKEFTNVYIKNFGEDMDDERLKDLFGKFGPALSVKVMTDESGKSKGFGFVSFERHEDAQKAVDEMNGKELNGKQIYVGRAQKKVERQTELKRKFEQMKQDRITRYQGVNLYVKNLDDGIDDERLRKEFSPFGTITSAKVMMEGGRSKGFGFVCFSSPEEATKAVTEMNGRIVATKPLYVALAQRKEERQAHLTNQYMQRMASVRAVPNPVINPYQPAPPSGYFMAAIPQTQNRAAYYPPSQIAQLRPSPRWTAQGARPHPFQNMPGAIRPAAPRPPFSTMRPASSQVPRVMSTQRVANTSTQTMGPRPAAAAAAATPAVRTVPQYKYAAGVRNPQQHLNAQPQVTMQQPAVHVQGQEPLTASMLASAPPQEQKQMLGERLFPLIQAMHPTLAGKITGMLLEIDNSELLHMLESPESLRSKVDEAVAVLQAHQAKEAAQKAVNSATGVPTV
T1 sequence (P49327 whole entry, the tested form may be a part): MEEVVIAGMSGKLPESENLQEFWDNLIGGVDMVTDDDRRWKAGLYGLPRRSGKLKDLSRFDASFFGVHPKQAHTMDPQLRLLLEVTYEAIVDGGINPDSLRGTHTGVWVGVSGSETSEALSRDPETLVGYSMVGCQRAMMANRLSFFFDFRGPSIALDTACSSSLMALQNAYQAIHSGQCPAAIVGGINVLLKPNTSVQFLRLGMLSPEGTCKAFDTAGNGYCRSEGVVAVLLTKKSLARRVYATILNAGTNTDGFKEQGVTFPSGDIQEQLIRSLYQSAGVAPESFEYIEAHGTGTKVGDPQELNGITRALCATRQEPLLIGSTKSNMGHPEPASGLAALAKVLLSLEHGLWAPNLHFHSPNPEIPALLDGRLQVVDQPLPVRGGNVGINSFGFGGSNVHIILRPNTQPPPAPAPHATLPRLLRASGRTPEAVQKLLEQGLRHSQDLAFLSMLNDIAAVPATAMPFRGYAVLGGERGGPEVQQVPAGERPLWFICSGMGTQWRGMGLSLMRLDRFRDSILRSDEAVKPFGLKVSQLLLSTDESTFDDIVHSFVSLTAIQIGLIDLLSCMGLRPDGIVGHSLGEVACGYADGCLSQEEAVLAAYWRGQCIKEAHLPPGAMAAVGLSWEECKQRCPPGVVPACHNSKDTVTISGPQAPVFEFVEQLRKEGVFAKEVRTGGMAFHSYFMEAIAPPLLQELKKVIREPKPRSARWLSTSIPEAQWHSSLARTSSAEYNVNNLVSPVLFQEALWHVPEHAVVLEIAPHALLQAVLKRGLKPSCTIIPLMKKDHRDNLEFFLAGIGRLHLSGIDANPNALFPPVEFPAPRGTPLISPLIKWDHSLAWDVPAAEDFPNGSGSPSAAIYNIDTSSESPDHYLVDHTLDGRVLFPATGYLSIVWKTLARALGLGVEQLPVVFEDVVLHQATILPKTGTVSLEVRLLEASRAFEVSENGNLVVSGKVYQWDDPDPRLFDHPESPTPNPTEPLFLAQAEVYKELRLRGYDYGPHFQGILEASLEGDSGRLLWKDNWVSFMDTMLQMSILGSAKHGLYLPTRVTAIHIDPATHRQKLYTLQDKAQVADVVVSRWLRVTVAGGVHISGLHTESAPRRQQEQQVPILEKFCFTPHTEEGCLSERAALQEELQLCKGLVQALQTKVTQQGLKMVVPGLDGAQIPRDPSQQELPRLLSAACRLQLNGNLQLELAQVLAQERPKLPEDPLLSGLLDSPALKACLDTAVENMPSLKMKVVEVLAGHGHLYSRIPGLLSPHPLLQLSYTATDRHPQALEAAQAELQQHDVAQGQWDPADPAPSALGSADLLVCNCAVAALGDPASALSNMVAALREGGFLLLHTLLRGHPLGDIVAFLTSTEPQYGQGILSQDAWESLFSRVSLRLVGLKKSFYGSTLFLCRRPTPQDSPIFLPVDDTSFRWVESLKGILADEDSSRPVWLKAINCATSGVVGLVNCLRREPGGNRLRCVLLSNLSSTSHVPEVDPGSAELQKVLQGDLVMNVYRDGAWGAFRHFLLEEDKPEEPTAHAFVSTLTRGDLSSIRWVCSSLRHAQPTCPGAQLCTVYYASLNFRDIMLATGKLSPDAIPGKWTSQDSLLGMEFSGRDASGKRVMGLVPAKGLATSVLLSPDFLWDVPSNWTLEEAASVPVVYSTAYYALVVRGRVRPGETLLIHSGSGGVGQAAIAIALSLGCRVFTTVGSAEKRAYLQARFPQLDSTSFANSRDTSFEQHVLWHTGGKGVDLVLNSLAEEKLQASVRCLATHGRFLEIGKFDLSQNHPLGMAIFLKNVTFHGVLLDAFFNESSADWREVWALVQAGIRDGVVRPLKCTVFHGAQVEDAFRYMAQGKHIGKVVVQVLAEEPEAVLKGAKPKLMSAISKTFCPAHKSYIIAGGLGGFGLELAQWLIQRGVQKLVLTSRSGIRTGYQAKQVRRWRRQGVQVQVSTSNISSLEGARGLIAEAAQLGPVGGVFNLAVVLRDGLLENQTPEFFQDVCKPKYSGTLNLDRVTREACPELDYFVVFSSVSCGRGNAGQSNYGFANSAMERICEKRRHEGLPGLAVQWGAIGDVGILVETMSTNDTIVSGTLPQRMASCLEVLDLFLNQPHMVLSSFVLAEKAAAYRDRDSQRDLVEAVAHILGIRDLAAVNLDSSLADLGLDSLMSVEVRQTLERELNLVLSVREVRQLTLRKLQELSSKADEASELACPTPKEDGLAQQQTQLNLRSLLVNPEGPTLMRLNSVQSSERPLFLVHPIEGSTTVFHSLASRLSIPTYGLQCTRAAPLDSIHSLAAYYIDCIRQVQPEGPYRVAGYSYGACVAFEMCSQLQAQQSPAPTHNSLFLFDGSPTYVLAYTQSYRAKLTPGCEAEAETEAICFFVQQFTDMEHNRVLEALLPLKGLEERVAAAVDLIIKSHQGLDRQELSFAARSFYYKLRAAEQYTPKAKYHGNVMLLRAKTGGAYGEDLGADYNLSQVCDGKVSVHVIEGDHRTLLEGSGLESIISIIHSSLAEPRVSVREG
FAD-linked sulfhydryl oxidase ALR, sequence (P55789 whole entry): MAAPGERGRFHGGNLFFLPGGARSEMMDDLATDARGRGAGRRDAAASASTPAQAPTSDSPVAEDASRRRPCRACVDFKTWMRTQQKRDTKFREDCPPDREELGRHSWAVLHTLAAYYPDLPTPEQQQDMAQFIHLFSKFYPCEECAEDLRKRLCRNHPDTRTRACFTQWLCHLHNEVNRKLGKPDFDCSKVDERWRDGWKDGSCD
Genome polyprotein, sequence (P29990 2492-3391 limits assumed): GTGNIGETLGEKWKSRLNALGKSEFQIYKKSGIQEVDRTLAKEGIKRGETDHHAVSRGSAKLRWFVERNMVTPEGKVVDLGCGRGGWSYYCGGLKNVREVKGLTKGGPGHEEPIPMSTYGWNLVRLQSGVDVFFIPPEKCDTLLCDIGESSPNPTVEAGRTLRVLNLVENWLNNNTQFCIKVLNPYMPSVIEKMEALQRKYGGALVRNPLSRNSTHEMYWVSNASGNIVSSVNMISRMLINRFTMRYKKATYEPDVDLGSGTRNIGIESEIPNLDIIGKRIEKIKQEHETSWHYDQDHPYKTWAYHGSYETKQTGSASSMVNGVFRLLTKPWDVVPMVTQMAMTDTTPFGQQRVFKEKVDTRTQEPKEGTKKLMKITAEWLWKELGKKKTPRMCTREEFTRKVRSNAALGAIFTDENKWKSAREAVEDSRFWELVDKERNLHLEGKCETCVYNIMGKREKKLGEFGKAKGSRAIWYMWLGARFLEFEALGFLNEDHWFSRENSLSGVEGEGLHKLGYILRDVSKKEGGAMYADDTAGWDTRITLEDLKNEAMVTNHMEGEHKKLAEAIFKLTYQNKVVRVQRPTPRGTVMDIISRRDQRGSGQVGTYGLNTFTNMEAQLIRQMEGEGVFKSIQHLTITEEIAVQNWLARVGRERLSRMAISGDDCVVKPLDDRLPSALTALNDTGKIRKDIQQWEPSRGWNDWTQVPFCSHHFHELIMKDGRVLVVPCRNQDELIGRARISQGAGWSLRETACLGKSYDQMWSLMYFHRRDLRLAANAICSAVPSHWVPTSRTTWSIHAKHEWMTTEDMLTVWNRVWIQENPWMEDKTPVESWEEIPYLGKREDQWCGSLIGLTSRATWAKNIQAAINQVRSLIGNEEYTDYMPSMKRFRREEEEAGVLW

SMILES: CCCCN=C(S)Nc1cc([N+](=O)[O-])ccc1C
- IC50 [1]: 14.1 µM (active)
- IC50 [2]: 9.4 µM (active)

SMILES: O=C(CCNC(=O)c1ccc([N+](=O)[O-])cc1)NCc1ccccc1
- IC50 [1]: 10.4 µM (active)
- IC50 [2]: 11.3 µM (active)

SMILES: COc1ccc(C(O)c2nccc3cc(OC)c(OC)cc23)cc1OC (stereo unspecified)
- AC50 [3]: 3.56 µM (active)
- EC50 [4]: 10.7 µM (active)

SMILES: O=C(O)CCN1C(=O)C(=C2CCCCCC2)SC1=S
- AC50 [5]: 40.8 µM (active)
- IC50 [6]: > 66 µM (inactive)
- IC50 [7]: > 66 µM (inactive)

SMILES: CCc1c(O)nc(SCC(=O)N2CCc3cc(OC)c(OC)cc3[C@@H]2C)nc1O
- IC50 [6]: > 66 µM (inactive)
- IC50 [7]: > 66 µM (inactive)

SMILES: CCOC(=O)Cc1csc(NC(=O)CSc2nc(O)c3c(C)c(C(=O)O)sc3n2)n1
- EC50 [8]: 104 µM (active)
- EC50 [9]: 5.45 µM (active)

SMILES: COc1cc(/C=C2/C(=O)N(c3ccc(C)c(C)c3)N=C2C)cc([N+](=O)[O-])c1O
- AC50 [3]: 11.3 µM (active)
- EC50 [4]: 8.54 µM (active)

SMILES: C=C(C)CSc1nc(O)cc(C)c1C#N
- EC50 [8]: > 150 µM (inactive)
- EC50 [9]: 1.86 µM (active)

SMILES: COc1ccccc1N1CC(C(=O)Nc2cc(C(F)(F)F)ccc2N2CCCC2)CC1=O (stereo unspecified)
- IC50 [1]: 7.17 µM (active)
- IC50 [2]: 6.81 µM (active)

SMILES: O=C(Cn1c(=O)c2sccc2n(Cc2cccc([N+](=O)[O-])c2)c1=O)NCCc1ccccc1
- IC50 [1]: 26.7 µM (inactive)
- IC50 [2]: 11.1 µM (active)

SMILES: O=C(c1ccc(Cl)c([N+](=O)[O-])c1)N1CCN(c2ccccc2)CC1
- IC50 [1]: 11.9 µM (active)

SMILES: CCN1CCN(c2c(Cl)cccc2NC(=O)c2ccc3c(c2)OCCO3)CC1
- AC50 [3]: > 380 µM (inactive)
- EC50 [4]: > 380 µM (inactive)

SMILES: Cc1[nH]n(-c2ccccc2)c(=O)c1C(c1ccc(O)c([N+](=O)[O-])c1)c1c(C)[nH]n(-c2ccccc2)c1=O
- IC50 [10]: 28.7 µM (active)
- AC50 [3]: 2.53 µM (active)
- EC50 [4]: 1.01 µM (active)

SMILES: CS(=O)(=O)c1ccc2nc(NC3(C(F)(F)F)N=C4SCCN4C3=O)sc2c1 (stereo unspecified)
- IC50 [6]: > 66 µM (inactive)
- IC50 [7]: > 66 µM (inactive)

SMILES: CCC(C)(C)C1CCc2n[nH]c(C(=O)NCCCNC(=O)OC(C)(C)C)c2C1 (stereo unspecified)
- IC50 [1]: 24.3 µM (inactive)
- IC50 [2]: 0.524 µM (active)

SMILES: CC1=NN(c2ccccc2)C(=O)C1C(=S)SC1CC(=O)NC1=O (stereo unspecified)
- IC50 [6]: > 66 µM (inactive)
- IC50 [7]: > 66 µM (inactive)

SMILES: CC(NC(=O)OCc1ccccc1)C(=O)Oc1cc2oc(=O)cc(-c3ccccc3)c2cc1Cl (stereo unspecified)
- EC50 [8]: > 150 µM (inactive)
- EC50 [9]: 1.09 µM (active)

SMILES: O=C(NCCc1ccccc1)c1c(O)c2cccc3c2n(c1=O)CC3
- EC50 [8]: > 150 µM (inactive)
- EC50 [9]: > 38 µM (not active)

SMILES: Cc1ccc(Sc2ncnc3onc(C)c23)cc1
- AC50 [3]: 14.9 µM (active)
- AC50 [11]: 9.91 µM (active)
- EC50 [4]: 6.8 µM (active)

SMILES: Cc1ccc2nc(N=C(N)NS(=O)(=O)c3ccc([N+](=O)[O-])cc3)nc(C)c2c1
- IC50 [1]: 14.5 µM (active)
- EC50 [12]: 0.199 µM (active)
- IC50 [2]: 12.2 µM (active)
- CC50 [13]: 35.2 µM (active)
- EC50 [14]: > 60 µM (not active)

SMILES: O=C(NCC1CCCCC1)c1cc([N+](=O)[O-])ccc1Cl
- IC50 [1]: 9.77 µM (active)
- IC50 [2]: 13.8 µM (active)

SMILES: CN(C)S(=O)(=O)c1cccc(NC(=S)N/N=C/c2cc(Br)ccc2O)c1
- EC50 [15]: > 350 µM (not active)
- EC50 [12]: 2.27 µM (active)
- EC50 [8]: > 150 µM (inactive)
- AC50 [16]: 0.481 µM (active)
- EC50 [17]: 7.76 µM (active)
- EC50 [9]: 2.83 µM (active)
- EC50 [14]: > 60 µM (not active)

SMILES: O=C(Cn1nnc(-c2cc(C(F)(F)F)cc(C(F)(F)F)c2)n1)NN=C(S)Nc1ccc(Cl)cc1
- IC50 [6]: > 66 µM (inactive)
- IC50 [7]: > 66 µM (inactive)

SMILES: COc1ccc(C(=O)NN/C(C)=C/C(=O)C(F)(F)C(F)(F)C(F)(F)F)cc1
- EC50 [8]: 47.2 µM (active)
- AC50 [16]: 32.5 µM (active)
- EC50 [9]: 0.384 µM (active)

SMILES: Cc1[nH]n(C(N)=S)c(=O)c1C(c1ccccc1)C(C#N)C#N (stereo unspecified)
- AC50 [3]: 16.2 µM (active)
- EC50 [4]: 12.9 µM (active)

SMILES: Cc1ccc(-n2[nH]c(C)c(/C=N/c3ccc4[nH]c(O)nc4c3)c2=O)cc1C
- AC50 [18]: 12.6 µM (inconclusive)
- IC50 [6]: 35.3 µM (inactive)
- IC50 [7]: 22 µM (inactive)

SMILES: CN(C)S(=O)(=O)c1ccc2c(c1)C(=O)c1cc(S(=O)(=O)N(C)C)ccc1CC2
- IC50 [1]: 0.166 µM (active)
- IC50 [2]: 0.176 µM (active)
